Like-named read-outs stand apart in the source and are kept apart here.
Experiments:
[1] = molecular target: T1, hS1P1R (hEdg1) membrane protein (Homo sapiens, UniProt P21453); experiment: hS1P1R GTPγS binding assay (Assay 3a); type: biochemical
T1 construct: purchased Lonza
Protocol: Assay 3a: The hS1P1R GTPγS binding assay was carried out at room temperature in 96 well non-binding surface assay plates. The reaction in each well contained 4 μg hS1P1R (hEdg1) membrane protein (Lonza), 30 μM GDP, 0.1 nM [^35S]GTPγS, 0.25% fatty acid free BSA, and serially diluted hS1P1R agonist compound in 200 μL assay buffer (25 mM Tris-HCl PH 7.9, 100 mM NaCl, 3 mM MgCl2, and 0.2 mM EGTA). After one hour of incubation, 0.9 mg of WGA (Wheat Germ Agglutinin) SPA beads in 50 μL of assay buffer was added to each well. The SPA beads were spun down after an additional one hour incubation. The radioactivity of the bound GTPγS was counted by reading the assay plate using a MicroBeta.

[2] = molecular target: T2, hS1PR5 (hEdg8) membrane protein (Homo sapiens, UniProt Q9H228); experiment: hS1P5R GTPγS binding assay (Assay 4); type: biochemical
T2 construct: expressed in transfected cells; host or cells: CHO
T2 sequence (Q9H228 whole entry): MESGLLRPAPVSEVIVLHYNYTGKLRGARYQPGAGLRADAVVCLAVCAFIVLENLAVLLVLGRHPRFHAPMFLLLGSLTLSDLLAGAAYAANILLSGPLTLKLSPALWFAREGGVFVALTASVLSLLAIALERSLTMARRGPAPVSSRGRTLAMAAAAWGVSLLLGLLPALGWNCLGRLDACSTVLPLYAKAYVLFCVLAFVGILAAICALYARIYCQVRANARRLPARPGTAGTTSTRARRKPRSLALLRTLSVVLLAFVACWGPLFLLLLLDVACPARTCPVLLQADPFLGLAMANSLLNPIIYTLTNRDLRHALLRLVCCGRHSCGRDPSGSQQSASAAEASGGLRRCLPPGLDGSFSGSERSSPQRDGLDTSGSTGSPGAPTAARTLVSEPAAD
Protocol: The hS1PR5 GTPγS binding assay was carried out at room temperature in 96-well non-binding surface assay plates. The reaction in each well contained 5 μg hS1PR5 (hEdg8) membrane protein from CHO cells expressing hS1PR5, 30 μM GDP, 0.1 nM [^35S]GTPγS, 0.25% fatty acid free BSA, and serially-diluted Compound of the Invention in 200 μL assay buffer (25 mM Tris-HCl PH 7.9, 100 mM NaCl, 3 mM MgCl2, and 0.2 mM EGTA). After one hour of incubation, 0.9 mg of WGA (Wheat Germ Agglutinin) SPA beads in 50 μL of assay buffer was added to each well. The SPA beads were spun down after an additional one hour incubation. The radioactivity of the bound GTPγS was counted by reading the assay plate using a MicroBeta.

S1P1 = molecular target: T3, S1P1 (Homo sapiens, UniProt P21453); experiment: Tango β-arrestin recruitment assay in U2OS cells (Assay 2b); type: cell-based
T3 construct: host or cells: U2OS
T3 sequence (P32121 whole entry): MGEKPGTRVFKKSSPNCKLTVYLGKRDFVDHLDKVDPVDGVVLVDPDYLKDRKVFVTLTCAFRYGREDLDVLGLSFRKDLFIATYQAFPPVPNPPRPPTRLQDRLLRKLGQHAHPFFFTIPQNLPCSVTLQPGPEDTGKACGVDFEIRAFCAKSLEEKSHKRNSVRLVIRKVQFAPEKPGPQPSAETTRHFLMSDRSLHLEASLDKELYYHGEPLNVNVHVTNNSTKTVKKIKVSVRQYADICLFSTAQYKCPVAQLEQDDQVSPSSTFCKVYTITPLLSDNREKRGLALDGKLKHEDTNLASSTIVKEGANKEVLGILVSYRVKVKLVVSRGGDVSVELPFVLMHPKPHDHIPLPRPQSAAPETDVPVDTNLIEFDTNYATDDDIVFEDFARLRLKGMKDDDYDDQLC
T3 sequence (P21453 whole entry): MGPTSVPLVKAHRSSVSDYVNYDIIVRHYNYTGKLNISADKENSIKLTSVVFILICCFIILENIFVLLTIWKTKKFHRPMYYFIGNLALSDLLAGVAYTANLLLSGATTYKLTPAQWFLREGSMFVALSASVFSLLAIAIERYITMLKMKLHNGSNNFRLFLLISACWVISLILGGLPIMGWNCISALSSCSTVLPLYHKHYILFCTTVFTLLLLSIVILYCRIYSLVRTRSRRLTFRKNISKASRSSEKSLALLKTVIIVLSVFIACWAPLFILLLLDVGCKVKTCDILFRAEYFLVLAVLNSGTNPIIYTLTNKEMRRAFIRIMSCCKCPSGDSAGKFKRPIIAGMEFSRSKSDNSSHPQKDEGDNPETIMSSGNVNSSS
Description: (§1) For the Tango™ β-arrestin recruitment assay, the cytoplasmic C-terminus of S1P1 was tethered to the tTA transcriptional activator with a linker that contains a cleavage site for the N1a protease from tobacco etch virus (TEV protease). The C-terminus of the human β-arrestin2 protein was fused to TEV protease. Binding of an agonist recruits the βl -arrestin-TEV fusion protein to the receptor resulting in cleavage of the linker and released of tTA to enter the nucleus and subsequently activated a tTA-dependent luciferase reporter gene.
Assay 2b: Alternatively, U2OS cells expressing the reporter gene and S1P1 (Invitrogen) were added to the wells of a 384-well white opaque bottom assay plate (PerkinElmer) at […]. The cells were serum starved for 48 h in Freestyle medium (Invitrogen). Test compounds were tested at maximum concentrations of 1 μM for the agonist assay. Compounds were diluted in DMSO (10 concentration points, 3-fold each) and added to the assay plate at a 1% final DMSO concentration. The efficacy control was 1 μM S1P (Avanti). For each compound, there were duplicate assay plates and each assay plate had duplicate wells per concentration point. The plate was incubated overnight at 37° C. The GeneBLAzer β-lactamase assay reagent (Invitrogen) was added and the plates were incubated for an additional 2 h at room temperature. Fluorescence was measured using an EnVision plate reader (PerkinElmer, Waltham, Mass.) at an excitation wavelength of 409 nm and emission wavelengths of 460 nm and 530 nm. The emission intensity at each wavelength was background subtracted against wells containing medium only and the F460 nm/F530 nm ratio determined for each concentration of the test compounds. Percent activity was calculated as [(test compound ratio−DMSO ratio)/(positive control ratio−DMSO ratio)*100], where the positive control and DMSO ratios are from cells incubated with the efficacy control 1 μM S1P and 1% DMSO, respectively. The percent activities were plotted against compound concentration to determine EC50 using XLFit (IDBS).

S1P3 = molecular target: T4, S1P3 (Homo sapiens, UniProt Q99500); experiment: S1P3 Tango β-arrestin recruitment assay in HEK293 cells (Assay 5); type: cell-based
T4 construct: host or cells: HEK293 (transient transfection)
T4 sequence (P32121 whole entry): as the sequence (P32121 whole entry) above
T4 sequence (Q99500 whole entry): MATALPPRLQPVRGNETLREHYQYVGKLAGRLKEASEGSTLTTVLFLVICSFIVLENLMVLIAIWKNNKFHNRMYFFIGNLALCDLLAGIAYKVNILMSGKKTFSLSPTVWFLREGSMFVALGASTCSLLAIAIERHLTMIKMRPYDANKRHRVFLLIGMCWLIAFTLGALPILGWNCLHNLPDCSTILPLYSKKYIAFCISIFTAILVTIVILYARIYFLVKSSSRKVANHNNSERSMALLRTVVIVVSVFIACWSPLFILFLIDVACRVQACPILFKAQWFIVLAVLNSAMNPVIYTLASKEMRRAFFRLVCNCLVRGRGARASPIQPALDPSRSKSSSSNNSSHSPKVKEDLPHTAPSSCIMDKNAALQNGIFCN
Description: as §1
Assay 2a: Frozen HEK293 cells transiently transfected with receptor cDNAs for S1P1 (Invitrogen) are thawed and suspended in 10 mL of Pro293a-CDM culture medium (Invitrogen) supplemented with 4 mM L-Glutamine (Invitrogen), 1× Pen/Strep (100 units/mL penicillin and 100 μg/mL streptomycin, Invitrogen) and 0.1% fatty acid free BSA (Sigma-Aldrich). Cells are added to the wells of a 384-well white opaque bottom assay plate (PerkinElmer) at 3,000-6,000 cells per well and the plate is incubated for approximately 4 h in a 37° C. incubator. Test compounds are tested at maximum concentrations of 10 μM for the agonist assays. Compounds are diluted in DMSO (10 concentration points, 3-fold each) and added to the assay plate at a 1% final DMSO concentration. For each compound, there are duplicate assay plates and each assay plate has duplicate wells per concentration point. The plate is incubated at 37° C. for 30 min. The efficacy control is 5 μM S1P (Avanti). Following agonist addition, the assay plates are incubated in a 37° C. incubator for 16-18 h. Luciferase assay reagent is added and luminescence measured in an EnVision plate reader (PerkinElmer). To determine agonist activity, percent activity is calculated as [(test compound−background)/(positive control−background)*100], where background is the luminescence of the DMSO alone control and the positive control is the luminescence from cells incubated with the efficacy control 5 μM S1P. The percent activities are plotted against compound concentration to determine EC50 using XLFit (IDBS).
This assay was conducted using the procedures described in Assay 2a, replacing S1P1 with S1P3.

[3] = * = rEC50 measured rather than EC50, read-out: Assay 2b rEC50 (relative EC50, cells marked *)

T1 sequence (P21453 whole entry): as the sequence (P21453 whole entry) above

Row | Compound | EC50 [1] | EC50 [2] | EC50 (S1P1; read-out: Assay 2b EC50) | EC50 (S1P3; read-out: Assay 5 EC50) | EC50 (S1P1; [3]) | EC50 (S1P3; * = rEC50 measured rather than EC50, read-out: Assay 5 rEC50 (relative EC50, cells marked *))
1 | CCOc1ccc(-c2nnc(-c3cc(F)c(OC[C@H](N)CO)cc3Cl)s2)cc1Cl [Entry 25, (2R)-2-amino-3-[(5-chloro-4-{5-[3-chloro-4-(ethyloxy)phenyl]-1,3,4-thiadiazol-2-yl}-2-fluorophenyl)oxy]propan-1-ol] | 10 to 50 nM | 50 to 250 nM | 10 to 50 nM | > 10000 nM | – | –
2 | CC(C)Oc1ccc(-c2nnc(-c3cc(F)c(OC[C@@H](N)COP(=O)(O)O)cc3Cl)s2)cc1Br [Entry 12, (2R)-2-amino-3-{[4-(5-{3-bromo-4-[(1-methylethyl)oxy]phenyl}-1,3,4-thiadiazol-2-yl)-5-chloro-2-fluorophenyl]oxy}propyl dihydrogen phosphate] | ≤ 10 nM | ≤ 10 nM | ≤ 10 nM | – | – | ≤ 250 nM
3 | CC(C)Oc1ccc(-c2nnc(-c3cc(F)c(OC[C@@H](N)CO)cc3Cl)s2)cc1Cl [Entry 10, (2S)-2-amino-3-{[5-chloro-4-(5-{3-chloro-4-[(1-methylethyl)oxy]phenyl}-1,3,4-thiadiazol-2-yl)-2-fluorophenyl]oxy}propan-1-ol] | ≤ 10 nM | 10 to 50 nM | ≤ 10 nM | ≤ 250 nM | – | –
4 | (1S,2R)-2-amino-3-{[5-chloro-2-fluoro- 4-(5-{2-methyl-6-[(1- methylethyl)amino]pyridin-4-yl}-1,3,4- thiadiazol-2-yl)phenyl]oxy}-1- methylpropyl dihydrogen phosphate [Entry 101] | ≤ 10 nM | ≤ 10 nM | ≤ 10 nM | > 250 nM | – | –
5 | CC(C)Oc1ccc(-c2nnc(-c3cc(F)c(OC[C@H](N)CO)cc3Cl)s2)cc1C(F)(F)F [Entry 18, (2R)-2-amino-3-{[5-chloro-2-fluoro-4-(5-{4-[(1-methylethyl)oxy]-3-(trifluoromethyl)phenyl}-1,3,4-thiadiazol-2-yl)phenyl]oxy}propan-1-ol] | ≤ 10 nM | 10 to 50 nM | 10 to 50 nM | > 10000 nM | – | –
6 | CC(C)Oc1ccc(-c2nnc(-c3cc(F)c(OC[C@@H](N)CO)cc3Cl)s2)nc1Cl [Entry 33, (2S)-2-amino-3-{[5-chloro-4-(5-{6-chloro-5-[(1-methylethyl)oxy]pyridin-2-yl}-1,3,4-thiadiazol-2-yl)-2-fluorophenyl]oxy}propan-1-ol] | 10 to 50 nM | – | ≤ 10 nM | ≤ 250 nM | – | –
7 | CC(C)Oc1ccc(-c2nnc(-c3ccc(OC[C@H](N)CO)cc3Cl)s2)cc1Cl [Entry 34, (2R)-2-amino-3-{[3-chloro-4-(5-{3-chloro-4-[(1-methylethyl)oxy]phenyl}-1,3,4-thiadiazol-2-yl)phenyl]oxy}propan-1-ol] | 10 to 50 nM | – | 50 to 250 nM | > 10000 nM | – | –

Now from value to compound:

Row | EC50 [1] | EC50 [2] | EC50 (S1P1; read-out: Assay 2b EC50) | EC50 (S1P3; read-out: Assay 5 EC50) | EC50 (S1P1; [3]) | EC50 (S1P3; * = rEC50 measured rather than EC50, read-out: Assay 5 rEC50 (relative EC50, cells marked *)) | Compound
8 | ≤ 10 nM | 10 to 50 nM | 10 to 50 nM | > 10000 nM | – | – | Cc1cc(-c2nnc(-c3cc(F)c(OC[C@H](N)[C@@H](C)O)cc3Cl)s2)ccc1OC(C)C [Entry 60, (2R,3S)-3-amino-4-{[5-chloro-2-fluoro-4-(5-{3-methyl-4-[(1-methylethyl)oxy]phenyl}-1,3,4-thiadiazol-2-yl)phenyl]oxy}butan-2-ol]
9 | ≤ 10 nM | 50 to 250 nM | 10 to 50 nM | > 10000 nM | – | – | CCOc1ccc(-c2nnc(-c3cc(F)c(OC[C@H](N)CO)cc3Cl)s2)cc1C#N [Entry 76, 5-[5-(4-{[(2R)-2-amino-3-hydroxyporpyl]oxy}-2-chloro-5-fluorophenyl)-1,3,4-thiadiazol-2-yl]-2-(ethyloxy)benzonitrile]
10 | 50 to 250 nM | 250 to 2800 nM | 50 to 250 nM | > 10000 nM | – | – | CC(C)Nc1cc(-c2nnc(-c3cc(F)c(OC[C@H](N)[C@@H](C)O)cc3Cl)s2)ccn1 [Entry 57]
11 | ≤ 10 nM | 10 to 50 nM | – | > 250 nM | ≤ 10 nM | – | CC(C)Nc1ccc(-c2nnc(-c3cc(F)c(OC[C@@H](N)[C@H](C)OP(=O)(O)O)cc3Cl)s2)cn1 [Entry 93, (1S,2R)-2-amino-3-{[5-chloro-2-fluoro-4-(5-{6-[(1-methylethyl)amino]pyridin-3-yl}-1,3,4-thiadiazol-2-yl)phenyl]oxy}-1-methylpropyl dihydrogen phosphate]
12 | 10 to 50 nM | 250 to 2800 nM | ≤ 10 nM | > 10000 nM | – | – | CC(C)Nc1ncc(-c2nnc(-c3cc(F)c(OC[C@H](N)[C@@H](C)O)cc3Cl)s2)cc1Cl [Entry 48, (2R,3S)-3-amino-4-{[5-chloro-4-(5-{5-chloro-6-[(1-methylethyl)amino]pyridin-3-yl}-1,3,4-thiadiazol-2-yl)-2-fluorophenyl]oxy}butan-2-ol]
13 | ≤ 10 nM | 10 to 50 nM | – | ≤ 250 nM | ≤ 10 nM | – | CC(C)Oc1ccc(-c2nnc(-c3cc(F)c(OC[C@@H](N)[C@H](C)O)cc3Cl)s2)cc1Cl [Entry 71, (2S,3R)-3-amino-4-{[5-chloro-4-(5-{3-chloro-4-[(1-methylethyl)oxy]phenyl}-1,3,4-thiadiazol-2-yl)-2-fluorophenyl]oxy}butan-2-ol]
14 | – | ≤ 10 nM | – | > 250 nM | ≤ 10 nM | – | Cc1cc(-c2nnc(-c3cc(F)c(OC[C@H](N)[C@H](C)OP(=O)(O)O)cc3Cl)s2)ccc1OC(C)C [Entry 104, (1S,2S)-2-amino-3-{[5-chloro-2-fluoro-4-(5-{3-methyl-4-[(1-methylethyl)oxy]phenyl}-1,3,4-thiadiazol-2-yl)phenyl]oxy}-1-methylpropyl dihydrogen phosphate]
15 | – | 50 to 250 nM | 50 to 250 nM | > 250 nM | – | – | Cc1nc(-c2nnc(-c3cc(F)c(OC[C@H](N)[C@H](C)O)cc3Cl)s2)ccc1NC(C)C [Entry 105, (2S,3S)-3-amino-4-(5-chloro-2-fluoro-4-{5-[6-methyl-5-(propan-2-ylamino)pyridin-2-yl]-1,3,4-thiadiazol-2-yl}phenoxy)butan-2-ol]
16 | – | 50 to 250 nM | 50 to 250 nM | > 250 nM | – | – | Cc1cc(NC(C)C)cc(-c2nnc(-c3cc(F)c(OC[C@H](N)[C@H](C)O)cc3Cl)s2)n1 [Entry 106, (2S,3S)-3-amino-4-(5-chloro-2-fluoro-4-{5-[6-methyl-4-(propan-2-ylamino)pyridin-2-yl]-1,3,4-thiadiazol-2-yl}phenoxy)butan-2-ol]

From patent publication US20100249071A1, “Modulators of S1P and Methods of Making And Using” (Exelixis, Inc., priority 2009, published 2010)
